Measurements reported in patent US7884107B2, “Substituted piperidines that increase P53 activity and the uses thereof” (Merck, priority 2006, dated 2011).

Biological target: HDM2 protein (Homo sapiens, UniProt Q00987)
Assay: fluorescence polarization screening assay (FP)
Type: binding
Settings: inhibitory concentration that achieves 50% of maximal activity

Sequence of HDM2 protein (Q00987 whole entry): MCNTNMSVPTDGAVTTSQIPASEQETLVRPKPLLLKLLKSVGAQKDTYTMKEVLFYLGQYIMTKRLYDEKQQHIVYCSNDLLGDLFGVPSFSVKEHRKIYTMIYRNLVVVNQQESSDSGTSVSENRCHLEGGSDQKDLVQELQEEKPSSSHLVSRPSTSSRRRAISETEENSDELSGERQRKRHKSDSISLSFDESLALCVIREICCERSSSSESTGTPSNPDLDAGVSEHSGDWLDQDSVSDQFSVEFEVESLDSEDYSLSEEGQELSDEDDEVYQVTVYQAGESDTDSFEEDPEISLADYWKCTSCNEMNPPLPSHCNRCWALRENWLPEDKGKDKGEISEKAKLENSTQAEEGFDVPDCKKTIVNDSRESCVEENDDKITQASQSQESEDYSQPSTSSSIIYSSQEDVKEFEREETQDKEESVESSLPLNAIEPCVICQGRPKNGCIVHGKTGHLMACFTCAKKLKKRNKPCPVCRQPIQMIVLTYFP

## CC(=O)Nc1ccccc1N1CCN(C(=O)C2(Oc3ccc(Br)c(F)c3)CCCN(C(=O)c3cnccc3C(F)(F)F)C2)CC1 (centres unmarked) [AU]
  IC50: 510 nM

## COc1ccccc1N1CCN(C(=O)C2(Oc3ccc(C(F)(F)F)cc3)CCCN(C(=O)c3cnccc3C(F)(F)F)C2)C(C(=O)NCCO)C1 (centres unmarked) [CR]
  IC50: 950 nM
